Broadly, the IC50 is the point on the concentration scale where inhibition reaches its midpoint.

One assay addresses T1, EPHA3 (Homo sapiens, UniProt P29320).
T1 construct: human EPHA3 intracellular domain (amino acids 571-986) containing juxtamembrane, kinase and SAM regions; 6xHis; made in house; host or cells: E. coli (Rosetta DE cells)
T1 sequence (P29320 571-983 limits assumed): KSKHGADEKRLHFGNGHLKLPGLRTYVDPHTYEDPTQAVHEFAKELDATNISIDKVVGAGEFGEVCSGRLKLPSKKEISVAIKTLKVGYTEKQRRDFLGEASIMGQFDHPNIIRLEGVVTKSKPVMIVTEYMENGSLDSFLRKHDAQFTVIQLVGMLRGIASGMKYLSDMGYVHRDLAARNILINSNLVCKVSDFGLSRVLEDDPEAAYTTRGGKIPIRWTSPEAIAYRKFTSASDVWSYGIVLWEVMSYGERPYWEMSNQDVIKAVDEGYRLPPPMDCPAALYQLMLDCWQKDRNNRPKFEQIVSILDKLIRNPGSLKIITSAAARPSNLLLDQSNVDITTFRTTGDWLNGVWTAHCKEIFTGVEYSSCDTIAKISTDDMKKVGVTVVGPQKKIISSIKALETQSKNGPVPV
Briefly: DELFIA EPHA3 kinase assay (phosphorylation of biotin-Src-peptide). The conditions noted are these: EPHA3 30 nM, biotin-Src-peptide 1 μM, ATP 30 μM, 3 hr incubation at 37° C., read-out: EPHA3 Potency IC50. Format: biochemical. Here is the method:
An EPHA3 enzyme construct comprised the human EPHA3 intracellular domain (amino acids 571-986) containing juxtamembrane, kinase and SAM regions. It was expressed in E. coli as a recombinant protein. 6×His and NusA expression tags were used in pET28a and pET44a vectors (Novagen), respectively. Expression was carried out in Rosetta DE cells with IPTG induction followed by recombinant protein purification on a Ni-column using imidazole elution buffer.
The ATP concentrations are selected near the Michaelis-Menten constant (KM) for each individual kinase. Dose-response experiments are performed at ten different inhibitor concentrations in a 384-well plate format. The data are fitted to a standard four-parameter equation listed below:
Y=Min+(Max−Min)/(1+XIC50)̂H
These parameters are obtained by nonlinear regression algorithm built into ActivityBase software (available from ID Business Solutions Ltd., of Guildford, Surrey, UK).
The DELFIA method is a solid-phase, non-homogeneous system that measures enzymatic activity by quantitating the phosphorylation of an immobilized substrate. The compound names are provided in the “Compositions Comprising Diabetes-Directed Molecules” section.
In this experiment, EPHA3 (30 nM) was incubated with biotinylated substrate, biotin-Src-peptide (1 μM)+ATP (30 μM) in an assay medium (10 mM HEPES pH 7.4, 2 mM MgCl2, 10 μM MnCl2, 1.0 mM DTT, 0.01% Pluronic F-127) in the presence of test compounds. After 3 hr incubation at 37° C., the reaction was stopped (5 mM EDTA) and the substrate phosphorylation was quantified in DELFIA assay using Eu-labeled anti-phosphotyrosine antibody.

The subject of assay [1] is Differentiated 3T3-L1. Put plainly: Triacylglycerol (TG) assay. It counts as cell-based, mouse. The settings on record: 100 nM insulin, 2 hours. The source says: A direct metabolic consequence of glucose transport intracellularly is its incorporation into the fatty acid and glycerol moieties of triacylglycerol (TG). TGs are highly concentrated stores of metabolic energy, and are the major energy reservoir of cells. In mammals, the major site of accumulation of triacylglycerols is the cytoplasm of adipose cells. Adipocytes are specialized for the synthesis, and storage of TG, and for their mobilization into fuel molecules that are transported to other tissues through the bloodstream. It is likely that changes in the transport of glucose intracellularly can affect cytoplasmic stores of triacylglycerols.
Cells were plated in 6-well dishes, and grown to confluency. When cells reached confluency, cells were differentiated with DMEM plus 10% fetal calf serum (FCS), 10 ug/mL insulin, 390 ng/mL dexamethasone and 112 ug/mL isobutylmethylxanthine for 2 days. After 2 days of differentiation, media was changed to maintenance media DMEM plus 10%. FCS and […] insulin. On the day of the assay (day 9 post-differentiation), cells were washed once with PBS, and serum starved by adding 2 mL of DMEM plus 2 mg/ml BSA for 3 hours. During serum starvation, recombinant rat ephrin-A5/Fc chimeric ligand was preclustered. […] The assay was read at 500-550 nm.

In assay [2] the test system is resistin mRNA in differentiated 3T3-L1 cells. Briefly: Quantitative assessment of mResistin levels (mRNA, PCR). It counts as cell-based, mouse. The conditions noted are these: 10 nM insulin for 2 hours. Here is the method: Resistin is a secreted factor specifically expressed in white adipocyte. […] Elevated levels of resistin have been measured in genetically obese, and high fat fed obese mice. It is therefore thought that resistin contributes to peripheral tissue insulin unresponsiveness, one of the pathological hallmarks of diabetes.
3T3-L1 cells were differentiated for 3 days as previously described and maintained for three days prior to splitting. At day 5 post-differentiation, differentiated cells were plated in 10 cm dish at a cell density of 3×10^6 cells. Cells were then serum starved on day 7 after initiation of differentiation. On day 8, cells were treated with pre-clustered recombinant rat ephrin-A5/Fc chimera as described above for 10 min and treated with 10 nM insulin for 2 hours. Cells were harvested, mRNA extracted using magnetic DYNAL beads and reverse transcribed to cDNA using. Superscript First-Strand Synthesis as described by the manufacturer. The following primers: forward primer; 5′ GTCGCTTCCTGATGTCGGTCA 3′, and reverse primer, 5′ GGCCAGCCTGGACTATATGAG 3′, were used in 15 uL PCR reaction using 55 deg annealing temperature and 30 cycles of amplification.

Assay [3] has as its system Differentiated 3T3-L1. Briefly: Glucose uptake assay (insulin-mediated uptake of radioactive glucose). The conditions noted are these: 100 nM insulin for 10 minutes. Format: cell-based, mouse. An excerpt:
One of the many responses of adipocytes and muscle cells after exposure, to insulin is the transport of glucose intracellularly. This transport is mediated by GLUT4, an insulin-regulatable glucose transporter. Insulin binding to insulin receptors on the cell surface results in autophosphorylation and activation of the intrinsic tyrosine kinase activity of the insulin receptor. Phosphorylated tyrosine residues on the insulin receptor and its endogenous targets activate several intracellular signaling pathways that eventually lead to the translocation of GLUT4 from intracellular stores to the extracellular membrane. Cells were plated in 6-well dishes, and grown to confluency. Cells were then differentiated with DMEM plus 10% fetal calf serum (FCS), 10 ug/mL insulin, 390 ng/mL dexamethasone and 112 ug/mL isobutylmethylxanthine for 2 days. After 2 days of differentiation, media was changed to maintenance media DMEM plus 10% FCS and 5 ug/mL insulin. Media was changed every 2 days thereafter. Cells were assayed for insulin-mediated glucose uptake 10 days after differentiation. On the day of the assay, cells were washed once with PBS, and serum starved by adding 2 mL of DMEM plus 2 mg/mL BSA for 3 hours. During serum starvation, recombinant rat ephrin-A5/Fc chimeric ligand was preclustered. […] Lysates were read in a Wallac 1450 Microbeta Liquid Scintillation and Luminescence Counter.

The target in assay [4] is T2, EPHA3 on differentiated 3T3-L1 cells (mouse) (UniProt P29319).
T2 sequence (looked up): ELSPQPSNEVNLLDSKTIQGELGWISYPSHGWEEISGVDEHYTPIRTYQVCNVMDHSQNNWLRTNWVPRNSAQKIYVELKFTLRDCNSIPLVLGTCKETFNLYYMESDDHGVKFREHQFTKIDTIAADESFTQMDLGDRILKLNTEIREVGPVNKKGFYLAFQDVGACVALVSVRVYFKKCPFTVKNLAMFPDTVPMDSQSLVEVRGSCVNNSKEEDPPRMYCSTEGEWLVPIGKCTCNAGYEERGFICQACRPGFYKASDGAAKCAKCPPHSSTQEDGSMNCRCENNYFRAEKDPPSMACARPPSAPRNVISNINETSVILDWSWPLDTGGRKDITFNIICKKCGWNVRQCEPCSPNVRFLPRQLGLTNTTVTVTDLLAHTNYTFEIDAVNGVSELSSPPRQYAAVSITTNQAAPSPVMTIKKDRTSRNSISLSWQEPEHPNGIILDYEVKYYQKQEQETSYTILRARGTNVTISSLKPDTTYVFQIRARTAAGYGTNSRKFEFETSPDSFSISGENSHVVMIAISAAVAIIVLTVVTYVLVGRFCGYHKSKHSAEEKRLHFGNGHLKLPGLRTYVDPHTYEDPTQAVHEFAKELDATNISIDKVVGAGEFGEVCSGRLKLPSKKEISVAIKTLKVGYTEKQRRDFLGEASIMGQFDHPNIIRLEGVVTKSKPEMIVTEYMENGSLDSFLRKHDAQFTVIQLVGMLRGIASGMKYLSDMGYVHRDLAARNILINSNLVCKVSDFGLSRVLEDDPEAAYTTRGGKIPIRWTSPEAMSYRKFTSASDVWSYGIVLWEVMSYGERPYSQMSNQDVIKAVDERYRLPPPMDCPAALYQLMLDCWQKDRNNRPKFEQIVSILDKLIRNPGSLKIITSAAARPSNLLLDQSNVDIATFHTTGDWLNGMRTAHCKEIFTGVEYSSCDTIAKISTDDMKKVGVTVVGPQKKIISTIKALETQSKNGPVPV
Briefly: cell-based or functional assay.

Consider `COc1cc2c(Nc3ccc(Cl)cc3F)ncnc2cc1OCC1CCN(C)CC1` [sqnm-7], for which, at EPHA3, the half-inhibitory concentration (IC50) came out at 900 nM.
In the case of `COc1cc2c(Nc3ccc(Cl)c(Br)c3)ncnc2cc1OCC1CN(C)CCO1` (stereo not drawn) [sqnm-12], the IC50 on EPHA3 was determined as 200 nM.
In the case of `COc1cc2c(Nc3ccc(Cl)cc3F)ncnc2cc1OCC1CN(C(C)C)CCO1` (stereo not drawn) [sqnm-15], the concentration for half-maximal inhibition (IC50) on EPHA3 is 800 nM.
On the same count and under the same terms, as for `COc1cc2c(Nc3ccc(Cl)c(Cl)c3)ncnc2cc1OCC1CN(C2CCCC2)CCO1` (stereo not drawn) [sqnm-9], the figure is 200 nM; as for `COc1cc2c(Nc3ccc(Cl)c(Cl)c3)ncnc2cc1OCC1CN(C)CCO1` (stereo not drawn) [sqnm-11], 400 nM.
`Oc1cccc(Nc2ncnc3ccccc23)c1` [sqnm-16]: on EPHA3, the IC50 came out at 11000 nM.
`COc1cc2ncnc(Nc3cccc(Cl)c3)c2cc1OC` [sqnm-4]: on EPHA3, the IC50 is 4500 nM.
For `COc1cc2ncnc(Nc3ccc(Cl)c(Cl)c3)c2cc1OC` [sqnm-1], the IC50 at EPHA3 is 2000 nM.
For the molecule “insulin: porcine insulin used to stimulate differentiated 3T3-L1 cells”, in the assay on Differentiated 3T3-L1 [1], the “increase in TG stores” value is on record as “about 23%”. Moreover, the “resistin mRNA levels” value in assay [2] is “decrease”. Moreover, the “increase in uptake of radioactive glucose” value in the assay with Differentiated 3T3-L1 [3] was determined as 22 fold.
Consider `COc1cc2c(Nc3cc(Cl)ccc3F)ncnc2cc1OCC1CCN(C)CC1` [sqnm-8], for which, on EPHA3, the IC50 stood at 2000 nM.
On the same count and under the same terms, as for `COc1cc2c(Nc3ccc(Cl)cc3F)ncnc2cc1OCC1CN(C2CCCC2)CCO1` (stereo not drawn) [sqnm-10], the figure is 300 nM; as for `COc1cc2ncnc(Nc3ccc(Cl)cc3F)c2cc1OC` [sqnm-5], 500 nM; as for `COc1cc2c(Nc3ccc(Cl)cc3F)ncnc2cc1OCC1CN(C)CCO1` (stereo not drawn) [sqnm-14], 200 nM.

B1: recombinant rat ephrin-A5/Fc chimeric ligand, preclustered with anti-human IgG, Fc γ fragment specific antibody (Fc fusion, part only; not given: Fc part, UniProt P97605 21-203, looked up, part only)
chain, part: QDPGSKVVADRYAVYWNSSNPRFQRGDYHIDVCINDYLDVFCPHYEDSVPEDKTERYVLYMVNFDGYSACDHTSKGFKRWECNRPHSPNGPLKFSEKFQLFTPFSLGFEFRPGREYFYISSAIPDNGRRSCLKLKVFVRPTNSCMKTIGVRDRVFDVNDKVENSLEPADDTVHESAEPSRGEN
As to B1, in assay [4], the insulin-mediated triacylglycerol (TG) stores, differentiated 3T3-L1, 10 min pretreatment with ephrin-A5 was determined as 10 % decrease; the uptake of radioactive glucose, insulin-treated differentiated 3T3-L1, 10 min pretreatment with pre-clustered ephrin-A5 was 20 % decrease; the uptake of radioactive glucose, insulin-treated differentiated 3T3-L1, 90 min preincubation with pre-clustered ephrin-A5 amounted to 15 % decrease.

The values are drawn from patent publication US20080199480A1, “Methods for Identifying Risk of Type II Diabetes and Treatments Thereof” (SEQUENOM, INC., priority 2004, published 2008).
